Here are results for 14 compounds from the CheMixHub viscosity set.

Where “and” joins values, the source holds several entries; their conditions need not be identical. Equal values may be shown once. ± gives the uncertainty stated by the source.

`C1CC[C@H]2CCCC[C@@H]2C1`: the viscosity – broadly, the resistance of a fluid to flow – is 2.118 ± 0.032 mPa·s (293.15 K, 101.3 kPa); 2.14 ± 0.02 mPa·s (293.15 K, 102 kPa); 1.616 ± 0.039 mPa·s (303.15 K, 101 kPa); 1.79 ± 0.02 mPa·s (303.15 K, 102 kPa); 1.3 ± 0.02 mPa·s (323.15 K, 102 kPa).

As to `CC(C)C(C)C`, the viscosity (298 K, 101.33 kPa) came to 0.3249 ± 0.0061 mPa·s.

On to `CC(C)[C@H](N)C(=O)[O-].CCCC[P+](CCCC)(CCCC)CCCN`, for which the viscosity (298.15 K, 101 kPa) came out at 1015 ± 50 mPa·s.

Turning to `CCCCC[N+](CC)(CC)CC.O=S(=O)([N-]S(=O)(=O)C(F)(F)F)C(F)(F)F`, the viscosity (293.15 K, 101.3 kPa) came to 233 ± 47 mPa·s; the viscosity (298.15 K, 101.3 kPa) came out at 169 ± 34 mPa·s; the viscosity (303.15 K, 101.3 kPa) was 126 ± 25 mPa·s; the viscosity (308.15 K, 101.3 kPa) came to 96.4 ± 19 mPa·s; the viscosity (313.15 K, 101.3 kPa) is listed as 75.1 ± 15 mPa·s; the viscosity (318.15 K, 101.3 kPa) is reported as 59.6 ± 12 mPa·s. Moreover, the viscosity (323.15 K, 101.3 kPa) came out at 48 ± 9.6 mPa·s.

Turning to `CCCCOCCCOCCCO`, the viscosity by setting is: (298.15 K, 101.33 kPa) 4.503 ± 0.064 mPa·s; (308.15 K, 101.33 kPa) 3.313 ± 0.048 mPa·s; (318.15 K, 101.33 kPa) 2.531 ± 0.037 mPa·s.

Consider `CCCCn1cc[n+](C)c1.[Cl][Fe-]([Cl])([Cl])[Cl]`, for which the viscosity (293.15 K, 101 kPa) came out at 56.56 ± 2.4 mPa·s; the viscosity (298.15 K, 101 kPa) stood at 46 ± 1.9 mPa·s; the viscosity (303.15 K, 101 kPa) amounted to 37.95 ± 1.6 mPa·s; the viscosity (308.15 K, 101 kPa) is listed as 31.87 ± 1.3 mPa·s; the viscosity (313.15 K, 101 kPa) was 27.01 ± 1.1 mPa·s; the viscosity (318.15 K, 101 kPa) is recorded as 23.24 ± 0.97 mPa·s. For the setting “323.15 K, 101 kPa”, this compound returned a viscosity of 20.16 ± 0.85 mPa·s.

Turning to `CCCOCCO`, the viscosity by setting is: (293.15 K, 101 kPa) 2.575 ± 0.024 mPa·s; (298.15 K, 101 kPa) 2.35 ± 0.018 mPa·s and 2.35 ± 0.023 mPa·s; (298.15 K, 101.33 kPa) 2.351 ± 0.029 mPa·s; (303.15 K, 101 kPa) 2.07 ± 0.016 mPa·s and 2.124 ± 0.021 mPa·s; (308.15 K, 101.33 kPa) 1.895 ± 0.024 mPa·s; (318.15 K, 101.33 kPa) 1.448 ± 0.018 mPa·s.

Compound `CCOCCOCCOCCO` displayed a viscosity (298.15 K, 101.33 kPa) of 7.042 ± 0.079 mPa·s.

As to `C[C@H]1CCCC[C@H]1O`, the viscosity is on record as 17.98 ± 0.22 mPa·s (298.15 K, 101 kPa) and 13.53 ± 0.18 mPa·s (303.15 K, 101 kPa).

Where the note is “303 K, 101 kPa”, `C[N+](C)(C)C.NCC(=O)[O-]` returned a viscosity of 306.2 ± 18 mPa·s.

Consider `N#Cc1ccccc1`, for which the viscosity by setting is: (293.15 K, 101 kPa) 1.335 ± 0.035 mPa·s; (293.15 K, 101.33 kPa) 1.382 ± 0.072 mPa·s; (298.15 K, 101 kPa) 1.237 ± 0.032 mPa·s and 1.196 ± 0.012 mPa·s and 1.249 ± 0.034 mPa·s; (298.15 K, 101.33 kPa) 1.282 ± 0.067 mPa·s; (303 K, 100 kPa) 1.099 ± 0.11 mPa·s; (303.15 K, 101 kPa) 1.161 ± 0.03 mPa·s and 1.121 ± 0.014 mPa·s and 1.124 ± 0.01 mPa·s. The viscosity is, setting by setting: (303.15 K, 101.32 kPa) 1.139 ± 0.0041 mPa·s; (303.15 K, 101.33 kPa) 1.148 ± 0.02 mPa·s; (308 K, 100 kPa) 1.003 ± 0.1 mPa·s; (308.15 K, 101.33 kPa) 1.063 ± 0.02 mPa·s and 1.063 ± 0.018 mPa·s; (313 K, 100 kPa) 0.9545 ± 0.096 mPa·s; (313.15 K, 101 kPa) 0.997 ± 0.026 mPa·s. For the same compound, the viscosity is, setting by setting: (313.15 K, 101.33 kPa) 0.993 ± 0.017 mPa·s; (318.15 K, 101 kPa) 0.931 ± 0.025 mPa·s; (323.15 K, 101 kPa) 0.872 ± 0.023 mPa·s and 0.866 ± 0.023 mPa·s.

`NCCOCCOCCN.O=S(=O)([N-]S(=O)(=O)C(F)(F)F)C(F)(F)F.[Li+]` had a viscosity (323.15 K, 101 kPa) of 108.2 ± 6.5 mPa·s.

As to `NNc1ccccc1`, the viscosity was 10.09 ± 0.27 mPa·s (303.15 K, 101 kPa); 4.58 ± 0.1 mPa·s and 4.58 ± 0.096 mPa·s (323.1 K, 101 kPa).

Take `Nc1cccc2ccccc12`: under “323.15 K, 101.33 kPa”, the viscosity is 11.2 ± 0.11 mPa·s.
